“And” between values parts separate entries of the source, which are not always exact repeats. Identical values can stand only once.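 These data come from cells grown in 96-well plates and exposed to compound for 48 hours at five concentrations. Abbreviation: GI50, concentration required for 50% inhibition of growth. TGI: total growth inhibition.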
What was measured:
Test in all cases: DTP human tumour cell line panel, 48 h
HOP-92 NSCLC = tested on: HOP-92 NSCLC
DU-145 prostate = tested on: DU-145 prostate
786-0 renal = tested on: 786-0 renal
HL-60(TB) leukemia = tested on: HL-60(TB) leukemia
SK-OV-3 ovarian = tested on: SK-OV-3 ovarian
M14 melanoma = tested on: M14 melanoma
SK-MEL-5 melanoma = tested on: SK-MEL-5 melanoma
K-562 leukemia = tested on: K-562 leukemia
SNB-19 CNS = tested on: SNB-19 CNS
MCF7 breast = tested on: MCF7 breast

SMILES: COc1cccc2ccc3c(c12)C(=O)OC31CCc2c(C)cccc21 (stereo not given)
- TGI (HOP-92 NSCLC): 87.9 µM
- TGI (DU-145 prostate): > 100 µM
- TGI (786-0 renal): > 46.4 µM
- TGI (HL-60(TB) leukemia): 32.9 µM
- TGI (SK-OV-3 ovarian): > 46.4 µM
- TGI (M14 melanoma): > 46.4 µM
- TGI (SK-MEL-5 melanoma): 19.5 µM
- TGI (K-562 leukemia): 89.5 µM
- TGI (SNB-19 CNS): > 46.4 µM
- TGI (MCF7 breast): 41.9 µM

SMILES: CS(=O)(=O)Nc1cc(-c2ccc3ncnc(Nc4cccc(Cl)c4F)c3c2)cnc1Cl
- GI50 (HOP-92 NSCLC): 0.672 µM
- TGI (HOP-92 NSCLC): 5.31 µM
- GI50 (DU-145 prostate): 3.69 µM
- TGI (DU-145 prostate): 29 µM
- GI50 (786-0 renal): 3.63 µM
- TGI (786-0 renal): 38.5 µM
- GI50 (HL-60(TB) leukemia): 3.19 µM
- TGI (HL-60(TB) leukemia): 40.2 µM
- GI50 (SK-OV-3 ovarian): 1.99 µM
- TGI (SK-OV-3 ovarian): 8.81 µM
- GI50 (M14 melanoma): 3.17 µM
- TGI (M14 melanoma): 17 µM
- GI50 (SK-MEL-5 melanoma): 1.66 µM
- TGI (SK-MEL-5 melanoma): 3.29 µM
- GI50 (K-562 leukemia): 4.2 µM
- TGI (K-562 leukemia): > 100 µM
- GI50 (SNB-19 CNS): 2.83 µM
- TGI (SNB-19 CNS): 16.1 µM
- GI50 (MCF7 breast): 0.624 µM
- TGI (MCF7 breast): 20.1 µM

SMILES: CC[C@H](C)[C@H](NC(=O)c1nccn1C)C(=O)N(C)[C@H](C[C@@H](OC(C)=O)c1nc(C(=O)N[C@@H](Cc2ccccc2)C[C@H](C)C(=O)OC)cs1)C(C)C
- GI50 (HOP-92 NSCLC): 4.86 µM
- TGI (HOP-92 NSCLC): > 33.3 µM
- GI50 (DU-145 prostate): 1.3 µM
- TGI (DU-145 prostate): > 33.3 µM
- GI50 (786-0 renal): 1.17 µM
- TGI (786-0 renal): 14.5 µM
- GI50 (HL-60(TB) leukemia): 0.642 µM
- TGI (HL-60(TB) leukemia): 1.78 µM
- GI50 (SK-OV-3 ovarian): 1.72 µM
- TGI (SK-OV-3 ovarian): > 33.3 µM
- GI50 (M14 melanoma): 0.557 µM
- TGI (M14 melanoma): 1.6 µM
- GI50 (SK-MEL-5 melanoma): 0.668 µM
- TGI (SK-MEL-5 melanoma): 3.67 µM
- GI50 (K-562 leukemia): 0.796 µM
- TGI (K-562 leukemia): > 33.3 µM
- GI50 (SNB-19 CNS): 1.28 µM
- TGI (SNB-19 CNS): > 33.3 µM
- GI50 (MCF7 breast): 0.187 µM
- TGI (MCF7 breast): > 33.3 µM

SMILES: CC(C)(F)C[C@H](N[C@@H](c1ccc(-c2ccc(S(C)(=O)=O)cc2)cc1)C(F)(F)F)C(=O)NC1(C#N)CC1
- GI50 (HOP-92 NSCLC): 5.81 µM and 7.42 µM
- TGI (HOP-92 NSCLC): 30.3 µM and 28.4 µM
- GI50 (DU-145 prostate): 47.6 µM and 44.4 µM
- TGI (DU-145 prostate): 55 µM and > 100 µM
- GI50 (786-0 renal): 9.02 µM and 26.2 µM
- TGI (786-0 renal): 55 µM and 87.8 µM
- GI50 (HL-60(TB) leukemia): > 100 µM
- TGI (HL-60(TB) leukemia): > 100 µM
- GI50 (SK-OV-3 ovarian): 23 µM and 27.5 µM
- TGI (SK-OV-3 ovarian): 55 µM and 70.7 µM
- GI50 (M14 melanoma): > 100 µM
- TGI (M14 melanoma): > 100 µM
- GI50 (SK-MEL-5 melanoma): > 55 µM and 73.1 µM
- TGI (SK-MEL-5 melanoma): > 100 µM
- GI50 (K-562 leukemia): > 100 µM
- TGI (K-562 leukemia): > 100 µM
- GI50 (SNB-19 CNS): 16.6 µM and 18.3 µM
- TGI (SNB-19 CNS): 55 µM and 62.2 µM
- GI50 (MCF7 breast): 35 µM and > 100 µM
- TGI (MCF7 breast): 55 µM and > 100 µM

Source: PubChem BioAssay (NCI)
